Consider 1 compound from ChEMBL document CHEMBL5584347, “Development of Nitric Oxide Releasing Oxoisoaporphines with Antidepressant Activities by Simultaneously Regulating MAO-A and SERT” (J Med Chem, 2024).

Data set [1] in a line: Cytotoxicity against human SH-SY5Y cells incubated for 24 hrs by MTT assay. The data set is classed as toxicity, cell-based. A general note: Tetrazolium dyes change colour on reduction, which living cells bring about.
Data set [2] deals with PC-12. Description: Neuroprotective activity against corticosterone-induced cell injury in rat PC-12 cells assessed as increase in cell viability at 0.01 to 1 uM incubated for 24 hrs by CCK8 assay. To be noted: dose 0.01-1 µM. It is filed as functional, cell-based.
The subject of data set [3] is Danio rerio. The experiment in a line: Antidepressant activity in reserpine-induced depressive zebrafish model assessed as increase in speed of movement at 0.5 to 1 uM preadministered with reserpine for 40 mins followed by compound administration and measured after 7 days by novel tank test. To be noted: dose 0.5-1 µM, time 7.0 day. The data set is classed as functional, organism-based.

The test system of data set [4] is Danio rerio. The experiment in a line: Antidepressant activity in reserpine-induced depressive zebrafish model assessed as increase in time spend in upper part at 0.5 to 1 uM preadministered with reserpine for 40 mins followed by compound administration and measured after 7 days by novel tank test. The note with it: dose 0.5-1 µM, time 7.0 day. The data set is classed as functional, organism-based.

The subject of data set [5] is Mus musculus. The experiment in a line: Antidepressant activity in chronic unpredictable mild stress induced depressive C57 mouse model assessed as increase in body weight at 5 to 10 mg/kg administered continuously for 2 weeks post 5 weeks of chronic unpredictable mild stress. It is filed as functional, organism-based. To be noted: dose 5-10 mg/kg.
The subject of data set [6] is Mus musculus. The experiment in a line: Antidepressant activity in chronic unpredictable mild stress induced depressive C57 mouse model assessed as reduction in fecal count at 5 to 10 mg/kg administered continuously for 2 weeks post 5 weeks of chronic unpredictable mild stress. To be noted: dose 5-10 mg/kg. It is filed as functional, organism-based.
Data set [7] concerns Mus musculus. The experiment in a line: Antidepressant activity in chronic unpredictable mild stress induced depressive C57 mouse model assessed as increase in number of upright movements at 5 to 10 mg/kg administered continuously for 2 weeks post 5 weeks of chronic unpredictable mild stress by open field test. The data set is classed as functional, organism-based. To be noted: dose 5-10 mg/kg.

Data set [8] in a line: Toxicity in C57 mouse assessed as effect on liver size at 5 to 10 mg/kg administered continuously for 2 weeks by H and E staining based analysis. It is filed as organism-based. The note with it: in vivo, 336 h, dose 5-10 mg/kg.
Data set [9] can be described thus: Toxicity in C57 mouse assessed as necrosis in liver at 5 to 10 mg/kg administered continuously for 2 weeks by H and E staining based analysis. It is filed as organism-based. To be noted: in vivo, 336 h, dose 5-10 mg/kg.
Data set [10] can be described thus: Toxicity in C57 mouse assessed as effect on kidney morphology at 5 to 10 mg/kg administered continuously for 2 weeks by H and E staining based analysis. The data set is classed as organism-based. To be noted: in vivo, 336 h, dose 5-10 mg/kg.
Data set [11] can be described thus: Toxicity in C57 mouse assessed as effect on kidney pathology at 5 to 10 mg/kg administered continuously for 2 weeks by H and E staining based analysis. It is filed as organism-based. The note with it: in vivo, 336 h, dose 5-10 mg/kg.
Data set [12] can be described thus: Toxicity in C57 mouse assessed as effect on lung morphology at 5 to 10 mg/kg administered continuously for 2 weeks by H and E staining based analysis. It is filed as organism-based. To be noted: in vivo, 336 h, dose 5-10 mg/kg.
Data set [13] is described as follows: Toxicity in C57 mouse assessed as effect on lung structure at 5 to 10 mg/kg administered continuously for 2 weeks by H and E staining based analysis. The note with it: in vivo, 336 h, dose 5-10 mg/kg. It is filed as organism-based.
Data set [14] is described as follows: Toxicity in C57 mouse assessed as effect on lung pathology at 5 to 10 mg/kg administered continuously for 2 weeks by H and E staining based analysis. The data set is classed as organism-based. To be noted: in vivo, 336 h, dose 5-10 mg/kg.
The nature of data set [15]: Toxicity in C57 mouse assessed as effect on spleen size at 5 to 10 mg/kg administered continuously for 2 weeks by H and E staining based analysis. The data set is classed as organism-based. To be noted: in vivo, 336 h, dose 5-10 mg/kg.
Data set [16] in a line: Toxicity in C57 mouse assessed as necrosis in spleen at 5 to 10 mg/kg administered continuously for 2 weeks by H and E staining based analysis. To be noted: in vivo, 336 h, dose 5-10 mg/kg. It is filed as organism-based.
Data set [17] in a line: Toxicity in C57 mouse assessed as effect in spleen pathology at 5 to 10 mg/kg administered continuously for 2 weeks by H and E staining based analysis. To be noted: in vivo, 336 h, dose 5-10 mg/kg. It is filed as organism-based.
For data set [18], the system named is Mus musculus. The experiment in a line: Antidepressant activity in chronic unpredictable mild stress induced depressive C57 mouse model assessed as decrease in SERT expression in brain at 5 to 10 mg/kg administered continuously for 2 weeks post 5 weeks of chronic unpredictable mild stress by Western blot analysis. It is filed as functional, organism-based. The note with it: dose 5-10 mg/kg.

Data set [19] deals with Mus musculus. The experiment in a line: Upregulation of 5-HT level in mouse at 10 mg/kg. It is filed as functional, organism-based.

For orientation: IC50 means the concentration that gives 50% inhibition. A lower IC50 goes with greater potency.

The source made the active and inactive calls. No cut-off for these calls is given here. Bounds are passed on as bounds.

Take `O=C1c2ccccc2-c2nccc3cc(OCCCO[N+](=O)[O-])cc1c23`: the IC50 at 24 h in data set [1] is more than 100 µM. For the same compound, the result in data set [2], in [3], in data set [4], in [5], in data set [6] and in data set [7] was Active. Moreover, the outcome in data set [18] and in [19] was Active. The Activity result in data set [8], in data set [9], in data set [10], in data set [11], in data set [12] and in data set [13] was “Non-Toxic” throughout. The Activity result in [14], in [15], in [16] and in [17] was “Non-Toxic” in each case.
